Source: US11299493B2, “Heterocyclic compounds and uses thereof” (NUVATION BIO INC., priority 2017, dated 2022)

Columns and labels:
A549 cells = experiment: Cytotoxicity assay (resazurin) in A549 cells; type: cell-based; conditions: Homo sapiens, A549, 96 hr, read-out: Cell Viability IC50 A549
Protocol: (§1) Cells were allowed to grow at 37° C. for 24 hr in 5% CO2 environment (culture conditions) in a Nuaire incubator (humidified). Serially diluted test compounds (100 μL) within the desired testing concentration ranges were added to the culture plate were further incubated in culture conditions for 72 hr and 96 hr for A427 and A549 respectively. The experiment was terminated at the designated incubation time by replacing the medium with 100 μL of 1 mM of resazurin (R7017; Sigma) prepared in respective culture medium, and the plates were further incubated in culture conditions for 4-6 hr. Fluorescence was recorded using a multimodal plate reader (Biotek Synergy Neo) at an excitation wavelength of 535 nm and emission wavelength of 590 nm to obtain relative fluorescence units. Data analysis was done by subtracting the background fluorescence (only medium blank) value from each reading and then normalizing with the vehicle control (DMSO treated cells) to obtain percent survival/proliferation. Percent survival was then subtracted by 100 to get the percent inhibition of proliferation which was used to calculate IC50 values.

WEE1 kinase enzyme = WEE1 kinase enzyme (Homo sapiens (Human), UniProt P30291); experiment: WEE1 IC50 determination, LanthaScreen Terbium Labeled TR-FRET kinase assay; type: biochemical; conditions: WEE1 enzyme 1 nM, ATP 10 μM, 1 h
Chain of WEE1 kinase enzyme (P30291 whole entry): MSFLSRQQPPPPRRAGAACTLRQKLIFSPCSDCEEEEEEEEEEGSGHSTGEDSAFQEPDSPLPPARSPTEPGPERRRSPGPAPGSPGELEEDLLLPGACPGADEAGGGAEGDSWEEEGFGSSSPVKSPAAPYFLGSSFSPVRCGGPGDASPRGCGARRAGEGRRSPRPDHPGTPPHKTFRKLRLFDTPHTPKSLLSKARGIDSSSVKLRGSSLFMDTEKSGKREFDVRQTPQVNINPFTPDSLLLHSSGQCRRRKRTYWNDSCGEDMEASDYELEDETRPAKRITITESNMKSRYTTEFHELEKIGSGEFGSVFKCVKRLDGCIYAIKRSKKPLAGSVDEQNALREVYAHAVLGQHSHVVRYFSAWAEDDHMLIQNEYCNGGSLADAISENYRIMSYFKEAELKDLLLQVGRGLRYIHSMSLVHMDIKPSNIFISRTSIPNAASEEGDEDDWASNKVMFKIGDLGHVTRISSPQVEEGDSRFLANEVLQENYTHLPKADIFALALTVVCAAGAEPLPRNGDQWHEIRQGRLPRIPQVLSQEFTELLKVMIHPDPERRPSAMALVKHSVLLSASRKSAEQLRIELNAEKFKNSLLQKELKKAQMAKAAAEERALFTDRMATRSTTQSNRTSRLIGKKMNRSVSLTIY
Protocol: IC50 values of compounds against WEE1 kinase enzyme were determined by LanthaScreen™ Terbium Labeled TR-FRET assay. […] After 1 h, […] stop solution containing Terbium labeled antibody (4 nM) (#PV3529, Invitrogen, Life Technologies Grand Island, N.Y.) and EDTA (#E5134, Sigma, St-Louis, Mo.) (20 mM) in TR-FRET dilution buffer (#PV3574, Invitrogen, Life Technologies Grand Island, N.Y.) was added. Readings were taken in a Synergy Neo Plate reader (BioTek, Winooski) at single excitation of 340 nm and Dual emission at 495 nm and 520 nm respectively.
The % activity of test samples was calculated as (Sample−Min)*100/(Max−Min). [Max: DMSO control, complete reaction with enzyme & DMSO and Min: No enzyme & DMSO].

A427 cells = experiment: Cytotoxicity assay (resazurin) in A427 cells; type: cell-based; conditions: Homo sapiens, A-427, 72 h, A427, 72 hr, read-out: Cell Viability IC50 A427
Protocol: as §1

SMILES | IC50 (WEE1 kinase enzyme) | IC50 (A549 cells) | IC50 (A427 cells)
C=CCn1c(=O)c2cnc(Nc3ccc4c(c3)CCNC4)nc2n1-c1cccc(C(C)(C)O)n1 [Example 1.8] | 1 nM | 545 nM | –
C=CCn1c(=O)c2cnc(Nc3ccc4c(c3)CN(C)CC4)nc2n1-c1cccc(C(C)(C)O)n1 [Example 1.9] | 1 nM | 520 nM | –
CC(C)n1c(=O)c2cnc(Nc3ccc4c(c3)CNCC4)nc2n1-c1cccc(C(C)(C)O)n1 [Example 1.10] | 2 nM | 510 nM | 340 nM
CC(C)(O)c1cccc(-n2c3nc(Nc4ccc5c(c4)CNCC5)ncc3c(=O)n2CC2CC2)n1 [Example 1.11] | 2 nM | 1180 nM | 430 nM
CCn1c(=O)c2cnc(Nc3ccc4c(c3)CNCC4(C)C)nc2n1-c1cccc(C(C)(C)O)n1 [Example 1.13] | 1.5 nM | 895 nM | 1000 nM
CCn1c(=O)c2cnc(Nc3ccc4c(c3)CN(C(=O)CO)CC4(C)C)nc2n1-c1cccc(C(C)(C)O)n1 [Example 1.14] | 1 nM | 1620 nM | –
CCCn1c(=O)c2cnc(Nc3ccc4c(c3)CNCC4)nc2n1-c1cccc(C(C)(C)O)n1 [Example 1.15] | 1.5 nM | 1200 nM | 560 nM
CC(C)(O)c1cccc(-n2c3nc(Nc4ccc5c(c4)CNCC5)ncc3c(=O)n2C2CC2)n1 [Example 1.17] | 9.5 nM | 9060 nM | 2320 nM
CC(C)n1c(=O)c2cnc(Nc3ccc4c(c3)NCCC4)nc2n1-c1ccnc(C(C)(C)F)c1 [Example 1.168] | 4150 nM | – | 4000 nM
CC(C)n1c(=O)c2cnc(Nc3ccc4c(c3)CNCC4)nc2n1-c1ccnc(C(C)(C)F)c1 [Example 1.169] | 16 nM | – | 2740 nM
CC(C)n1c(=O)c2cnc(Nc3ccc4c(c3)CCC(N(C)C)C4)nc2n1-c1ccnc(C(C)(C)C)c1 (centres unmarked) [Example 1.170, 1-(2-tert-butylpyridin-4-yl)-6-{[6-(dimethylamino)-5,6,7,8-tetrahydronaphthalen-2-yl]amino}-2-(propan-2-yl)-1H,2H,3H-pyrazolo[3,4-d]pyrimidin-3-one] | 12 nM | – | 775 nM
CC(C)n1c(=O)c2cnc(Nc3ccc4c(c3)CC(N(C)C)CC4)nc2n1-c1ccnc(C(C)(C)C)c1 (centres unmarked) [Example 1.171] | 6 nM | – | 735 nM
CC(C)n1c(=O)c2cnc(Nc3ccc4c(c3)CCNC4)nc2n1-c1ccnc(N(C)C)c1 [Example 1.172] | 12 nM | – | 1350 nM
COC(=O)N1CCc2cc(Nc3ncc4c(=O)n(C(C)C)n(-c5ccnc(C(C)(C)C)c5)c4n3)ccc2C1 [Example 1.173] | 343 nM | – | 2330 nM
CC(C)(C)c1cc(-n2c3nc(Nc4ccc5c(c4)CNCC5)ncc3c(=O)n2CC(F)(F)F)ccn1 [Example 1.174] | 108 nM | – | 4000 nM
CC(C)n1c(=O)c2cnc(Nc3ccc4c(c3)CCNC4)nc2n1-c1ccc(N(C)C)c(C(C)(C)C)c1 [Example 1.175] | 156 nM | – | 1160 nM
CC(C)n1c(=O)c2cnc(Nc3ccc4c(c3)CCNC4(C)C)nc2n1-c1ccnc(C(C)(C)C)c1 [Example 1.176] | 8 nM | – | 595 nM
CC(C)n1c(=O)c2cnc(Nc3ccc4c(c3)CCNC4)nc2n1-c1ccnc(N(C)S(C)(=O)=O)c1 [Example 1.177] | 12 nM | – | 1970 nM
CC(C)n1c(=O)c2cnc(Nc3ccc4c(c3)CCNC4)nc2n1-c1ccnc(C(C)(C)O)c1 [Example 1.178] | 14 nM | – | 6200 nM
CC(C)n1c(=O)c2cnc(Nc3ccc4c(c3)CCNC4)nc2n1-c1ccc(F)c(C(C)(C)O)c1 [Example 2.185] | 34 nM | – | 1540 nM
CC(C)n1c(=O)c2cnc(Nc3ccc4c(c3)CNCC4)nc2n1-c1ccc(F)c(C(C)(C)O)c1 [Example 2.186] | 24 nM | – | 905 nM
CC(C)n1c(=O)c2cnc(Nc3ccc4c(c3)CCNC4(C)C)nc2n1-c1ccnc(C(C)(C)F)c1 [Example 2.187] | 12 nM | – | 435 nM
CC(C)n1c(=O)c2cnc(Nc3ccc4c(c3)CNCC4)nc2n1-c1ccn(C2CC2)n1 [Example 2.189] | 43 nM | – | 1990 nM
CC(C)n1c(=O)c2cnc(Nc3ccc4c(c3)CNCC4)nc2n1-c1cc(C(C)(C)C)ccn1 [Example 2.287] | 120 nM | – | 1960 nM

Second part, led by results:

IC50 (WEE1 kinase enzyme) | SMILES | IC50 (A549 cells) | IC50 (A427 cells)
217 nM | CC(C)n1c(=O)c2cnc(Nc3ccc4c(c3)CCNC4)nc2n1-c1cc(C(C)(C)C)ccn1 [Example 2.288] | – | 2580 nM
49 nM | CC(C)n1c(=O)c2cnc(Nc3ccc4c(c3)CCNC4)nc2n1-c1ccn(C)n1 [Example 2.289] | – | 8760 nM
90 nM | CC(C)n1c(=O)c2cnc(Nc3ccc4c(c3)CCNC4)nc2n1-c1ccc(F)cn1 [Example 2.290] | – | 3370 nM
46 nM | CC(C)n1c(=O)c2cnc(Nc3ccc4c(c3)CNCC4)nc2n1-c1ccc(F)cn1 [Example 2.291] | – | 7990 nM
43 nM | CC(C)n1c(=O)c2cnc(Nc3ccc4c(c3)CNCC4)nc2n1-c1ccn(C)n1 [Example 2.292] | – | 13300 nM
> 3650 nM | COC(C)(C)c1cc(-n2c3nc(Nc4ccc5c(c4)CCNC5)ncc3c(=O)n2C(C)C)ccn1 [Example 2.293] | – | > 30000 nM
123 nM | CC(C)(F)c1cc(-n2c3nc(Nc4ccc5c(c4)CNCC5(C)C)ncc3c(=O)n2C2CC2)ccn1 [Example 2.605] | – | 5960 nM
6 nM | CC(C)n1c(=O)c2cnc(Nc3ccc4c(c3)CCNC4(C)C)nc2n1-c1cccc(N(C)S(C)(=O)=O)n1 [Example 2.642] | – | 2460 nM
26 nM | CC(C)n1c(=O)c2cnc(Nc3ccc4c(c3)CCNC4(C)C)nc2n1-c1ccn(C2CC2)n1 [Example 2.643] | – | 2180 nM
5 nM | CC(C)n1c(=O)c2cnc(Nc3ccc4c(c3)CCN(C)C4)nc2n1-c1ccnc(C(C)(C)C)c1 [Example 2.644] | – | 2330 nM
5 nM | CC(C)n1c(=O)c2cnc(Nc3ccc4c(c3)CCNC4)nc2n1-c1cccc(N(C)S(C)(=O)=O)n1 [Example 2.645] | – | 4010 nM
15 nM | CC(C)n1c(=O)c2cnc(Nc3ccc4c(c3)CNCC4(C)C)nc2n1-c1ccn(C2CC2)n1 [Example 2.646] | – | 4370 nM
10 nM | CC(C)n1c(=O)c2cnc(Nc3ccc4c(c3)CCNC4)nc2n1-c1ccsc1 [Example 2.647] | – | 2650 nM
2 nM | CC(C)n1c(=O)c2cnc(Nc3ccc4c(c3)CNCC4)nc2n1-c1cccc(C(C)(C)C#N)n1 [Example 3.035] | – | 420 nM
5 nM | CC(C)n1c(=O)c2cnc(Nc3ccc4c(c3)CCNC4)nc2n1-c1cccc(C(C)(C)C#N)n1 [Example 3.036] | – | 250 nM
